The source of these data is US20220298579A1, “COMPOSITIONS AND METHODS FOR PREDICTING SUSCEPTIBILITY OF CANCERS TO SYNTHETIC-LETHAL THERAPIES” (University of Florida Research Foundation, Inc., priority 2019, published 2022).

A value given as a limit tells only on which side of the number the result lay.

The test system of data set [1] is EBV-infected B-cell lines. Conditions: 50 μM AG490; previously demonstrated (Koganti et al. 2014); cited from earlier work.
The next data set has as its system STAT3 phosphorylation. Conditions: Janus kinase inhibitor; literature (Koganti 2014; Meydan 1996); cited from earlier work.
Data set [2] concerns EBV-positive HH514-16 Burkitt lymphoma (BL) cells. Description: DR-GFP reporter assay of HR-mediated DSB repair in BL cells. The format is cell-based, human. Conditions: increasing concentrations of AG490 (25 μM, 50 μM) added 18 h after DR-GFP + ISce1 transfection, harvested after another 30 h; HH514-16 BL cells. Here is the method: (§1) FIGS. 2A to 2O show STAT3 restricts HR repair through Chk1 in oncovirus-transformed cells. FIGS. 2A to 2K show LCL derived from a healthy subject (FIGS. 2A-2E, 2K) and EBV-positive HH514-16 Burkitt lymphoma (BL) cells (FIGS. 2F-2J, 2K) were transfected with DR-GFP plasmid (FIGS. 2A-2D, 2F-2I) and empty vector pCAGGS (FIGS. 2A, 2F) or ISce1 plasmid (FIGS. 2B-2D, 2G-2I), treated with 25 μM (FIGS. 2C, 2H) or 50 μM (FIGS. 2D, 2I) AG490 (a selective STAT3 inhibitor) after 18 h, and harvested after another 30 h for analysis of GFP-positive cells by flow cytometry (FIGS. 2A-2D, 2F-2I) and immunoblotting for phospho(p)STAT3 and β-actin (FIG. 2K). LCL (FIG. 2E) and BL cells (FIG. 2J) were transfected in parallel with pEGFP to monitor transfection efficiency. […]
(§2) For assessment of cell-cycle distribution, cells were fixed, permeabilized, and stained with anti-EBNA2 antibody and 50 μg/ml propidium iodide supplemented with 1 μg/ml RNase A, as previously described (Hill, E. R. et al. J Virol 87:11438-11446 (2013)). […] Data were acquired using a FACS Calibur and analyzed using FlowJo software. […]

The subject of data set [3] is LCL derived from a healthy subject. Description: DR-GFP reporter assay of HR-mediated DSB repair in LCL. Conditions: increasing concentrations of AG490 (25 μM, 50 μM) added 18 h after DR-GFP + ISce1 transfection, harvested after another 30 h. The format is cell-based, human. Here is the method:
as §1, §2

The subject of data set [4] is EBV+ BL cell lines (HH514-16, Akata, and Raji). Description: Growth of EBV+ BL cell lines in the presence of Olaparib (live cell enumeration). The format is cell-based, human. Conditions: Olaparib used alone, effect more pronounced than on LCL. The text has this: (§3) FIGS. 3A-3F show LCL derived from 3 healthy subjects (FIGS. 3A-3C) and 3 EBV^+ BL cell lines (HH514-16, Akata, and Raji; FIGS. 3D-3F) grown in the presence of Olaparib (added at time 0 and every 3-4 days thereafter) and enumerated for live cells on indicated days. FIGS. 3G-3N show LCL (FIGS. 3G-3J) and HH514-16 BL cells (FIGS. 3K-3N) transfected with DR-GFP plasmid (FIGS. 3G, 3H, 3K, 3L) and empty vector pCAGGS (FIGS. 3G, 3K) or ISce1 plasmid (FIGS. 3H, 3L) versus EJ2 plasmid (FIGS. 3I, 3J, 3M, 3N) and pCAGGS (FIGS. 3I, 3M) or ISce1 plasmid (FIGS. 3J, 3N) and harvested after 48 h for analysis of GFP-positive cells by flow cytometry. Numbers in plots indicate percent GFP-positive cells. Experiments were performed 3 times.
(§4) Newly-infected B cells and previously established EBV-LCL were grown in culture using conditions described (Koganti, S., et al. J Virol 88:516-524 (2014)). For experiments using AG490 and Olaparib, chemicals were added to cultures at time 0. For experiments using Olaparib, the drug was supplemented at the initial concentration every fourth day. For experiments using Bleomycin, the drug was added for an hour, following which cells were washed and placed back in culture.

Data set [5] deals with LCL derived from healthy subjects (EBV-transformed cells). Description: Growth of LCL in the presence of Olaparib (live cell enumeration). The class given is cell-based, human. Conditions: Olaparib used alone, added at time 0 and every 3-4 days thereafter; all LCL (3 healthy subjects).
Text: as §3, §4

For `N#C/C(=C/c1ccc(O)c(O)c1)C(=O)NCc1ccccc1` [AG490], in data set [1], the “toxicity to EBV-infected B-cell lines” value is “minimally toxic”. In the data set on STAT3 phosphorylation, the “inhibition of STAT3 phosphorylation” value is recorded as “selectively inhibit STAT3 phosphorylation”. The “percentages of GFP+ cells (HR repair competent)” value in data set [2] and in data set [3] was “increased” in each case.

Take `O=C(c1cc(Cc2n[nH]c(=O)c3ccccc23)ccc1F)N1CCN(C(=O)C2CC2)CC1` [Olaparib]: in data set [4], the “sensitivity to PARP inhibition (growth)” value is given as “exquisite sensitivity”. Further, the reduction in growth in data set [5] is listed as greater than 50%.
